Laboratory results published in patent publication US12157741B2, “Macrocyclic inhibitors of DYRK1A” (DANA-FARBER CANCER INSTITUTE, INC., priority 2018, dated 2024).
Read-outs that look alike come from different tables or passages of the source.

Assays:
Type in all cases: binding
various enzymes [1] = target: various enzymes (Homo sapiens, UniProt Q9NYY3); settings: compound 1 uM
Description: (§1) Ambit profiling was conducted in accordance with the manufacturer's instructions.

various enzymes [2] = target: various enzymes (Homo sapiens, UniProt P48736); settings: compound 1 uM
Description: as §1

various enzymes [3] = target: various enzymes (Homo sapiens, UniProt Q16659); settings: compound 1 uM
Description: as §1

various enzymes [4] = target: various enzymes (Homo sapiens, UniProt Q9HBY8); settings: compound 1 uM
Description: as §1

various enzymes [5] = target: various enzymes (Homo sapiens, UniProt Q59H18); settings: compound 1 uM
Description: as §1

various enzymes [6] = target: various enzymes (Homo sapiens, UniProt P06239); settings: compound 1 uM
Description: as §1

various enzymes [7] = target: various enzymes (Homo sapiens, UniProt Q9NYL2); settings: compound 1 uM
Description: as §1

various enzymes [8] = target: various enzymes (Homo sapiens, UniProt Q8WU08); settings: compound 1 uM
Description: as §1

various enzymes [9] = target: various enzymes (Homo sapiens, UniProt P42681); settings: compound 1 uM
Description: as §1

various enzymes [10] = target: various enzymes (Homo sapiens, UniProt Q8IY84); settings: compound 1 uM
Description: as §1

various enzymes [11] = target: various enzymes (Homo sapiens, UniProt Q13523); settings: compound 1 uM
Description: as §1

various enzymes [12] = target: various enzymes (Homo sapiens, UniProt Q04759); settings: compound 1 uM
Description: as §1

various enzymes [13] = target: various enzymes (Homo sapiens, UniProt Q9Y2U5); settings: compound 1 uM
Description: as §1

various enzymes [14] = target: various enzymes (Homo sapiens, UniProt Q8TD19); settings: compound 1 uM
Description: as §1

various enzymes [15] = target: various enzymes (Homo sapiens, UniProt P42336, Q546K)
Description: as §1

various enzymes [16] = target: various enzymes (Homo sapiens, UniProt O95382); settings: compound 1 uM
Description: as §1

various enzymes [17] = target: various enzymes (Homo sapiens, UniProt Q9C098); settings: compound 1 uM
Description: as §1

various enzymes [18] = target: various enzymes (Homo sapiens, UniProt Q96PY6); settings: compound 1 uM
Description: as §1

various enzymes [19] = target: various enzymes (Homo sapiens, UniProt P00533, L858R/T790M)
Description: as §1

various enzymes [20] = target: various enzymes (Homo sapiens, UniProt Q9UL54); settings: compound 1 uM
Description: as §1

various enzymes [21] = target: T1, various enzymes (Homo sapiens, UniProt Q9NWZ3); settings: compound 1 uM
T1 sequence (Q9NWZ3 1-460): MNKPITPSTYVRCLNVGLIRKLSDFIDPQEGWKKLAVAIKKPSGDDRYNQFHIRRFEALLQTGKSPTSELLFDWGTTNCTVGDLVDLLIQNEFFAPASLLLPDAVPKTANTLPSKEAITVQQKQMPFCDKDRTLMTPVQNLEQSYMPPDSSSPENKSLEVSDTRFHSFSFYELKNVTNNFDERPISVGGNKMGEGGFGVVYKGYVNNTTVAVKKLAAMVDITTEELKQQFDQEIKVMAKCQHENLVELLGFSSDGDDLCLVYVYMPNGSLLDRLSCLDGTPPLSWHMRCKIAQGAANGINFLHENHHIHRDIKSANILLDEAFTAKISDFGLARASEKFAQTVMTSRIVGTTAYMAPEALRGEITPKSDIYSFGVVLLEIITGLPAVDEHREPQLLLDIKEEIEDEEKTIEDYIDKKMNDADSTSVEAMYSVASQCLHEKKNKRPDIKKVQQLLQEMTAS
Description: as §1

various enzymes [22] = target: various enzymes (Homo sapiens, UniProt Q9BVS4); settings: compound 1 uM
Description: as §1

various enzymes [23] = target: various enzymes (Homo sapiens, UniProt O75676); settings: compound 1 uM
Description: as §1

various enzymes [24] = target: various enzymes (Homo sapiens, UniProt P08581, M1250T)
Description: as §1

various enzymes [25] = target: various enzymes (Homo sapiens, UniProt Q99755); settings: compound 1 uM
Description: as §1

various enzymes [26] = target: various enzymes (Homo sapiens, UniProt Q02779); settings: compound 1 uM
Description: as §1

various enzymes [27] = target: various enzymes (Homo sapiens, UniProt P42336); settings: compound 1 uM
Description: as §1

various enzymes [28] = target: various enzymes (Homo sapiens, UniProt P00519); settings: compound 1 uM
Description: as §1

various enzymes [29] = target: various enzymes (Homo sapiens, UniProt P36888, N841I); settings: compound 1 uM
Description: as §1

various enzymes [30] = target: various enzymes (Homo sapiens, UniProt Q86UE8); settings: compound 1 uM
Description: as §1

various enzymes [31] = target: various enzymes (Homo sapiens, UniProt P31749); settings: compound 1 uM
Description: as §1

various enzymes [32] = target: various enzymes (Homo sapiens, UniProt P09619); settings: compound 1 uM
Description: as §1

various enzymes [33] = target: various enzymes (Homo sapiens, UniProt P46734); settings: compound 1 uM
Description: as §1

various enzymes [34] = target: various enzymes (Homo sapiens, UniProt P54756); settings: compound 1 uM
Description: as §1

various enzymes [35] = target: various enzymes (Homo sapiens, UniProt Q16566); settings: compound 1 uM
Description: as §1

various enzymes [36] = target: various enzymes (Homo sapiens, UniProt P16234); settings: compound 1 uM
Description: as §1

various enzymes [37] = target: various enzymes (Homo sapiens, UniProt Q00532); settings: compound 1 uM
Description: as §1

various enzymes (Homo sapiens, UniProt O75676), sequence (O75676 whole entry): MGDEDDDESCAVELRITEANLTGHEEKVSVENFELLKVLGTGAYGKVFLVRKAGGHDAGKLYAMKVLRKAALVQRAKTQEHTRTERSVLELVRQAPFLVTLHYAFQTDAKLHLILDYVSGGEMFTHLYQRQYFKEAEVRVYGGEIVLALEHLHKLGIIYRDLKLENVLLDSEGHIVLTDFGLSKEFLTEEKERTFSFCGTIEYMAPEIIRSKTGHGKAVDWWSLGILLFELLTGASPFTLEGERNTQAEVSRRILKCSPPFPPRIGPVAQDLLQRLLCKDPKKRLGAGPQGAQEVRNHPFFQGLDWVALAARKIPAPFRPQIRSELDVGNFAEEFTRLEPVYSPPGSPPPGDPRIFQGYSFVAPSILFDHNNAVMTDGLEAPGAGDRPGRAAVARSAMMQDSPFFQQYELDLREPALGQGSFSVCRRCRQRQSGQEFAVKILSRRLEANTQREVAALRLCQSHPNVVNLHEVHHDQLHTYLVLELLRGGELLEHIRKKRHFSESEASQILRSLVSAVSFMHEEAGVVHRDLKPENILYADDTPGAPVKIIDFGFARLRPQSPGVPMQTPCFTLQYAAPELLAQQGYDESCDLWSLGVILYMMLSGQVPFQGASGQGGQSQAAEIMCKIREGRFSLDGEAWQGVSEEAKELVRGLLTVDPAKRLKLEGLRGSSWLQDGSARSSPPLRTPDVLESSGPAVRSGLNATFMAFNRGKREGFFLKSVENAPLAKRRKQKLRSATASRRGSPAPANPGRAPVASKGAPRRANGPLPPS
various enzymes (Homo sapiens, UniProt P00519), sequence (P00519 whole entry): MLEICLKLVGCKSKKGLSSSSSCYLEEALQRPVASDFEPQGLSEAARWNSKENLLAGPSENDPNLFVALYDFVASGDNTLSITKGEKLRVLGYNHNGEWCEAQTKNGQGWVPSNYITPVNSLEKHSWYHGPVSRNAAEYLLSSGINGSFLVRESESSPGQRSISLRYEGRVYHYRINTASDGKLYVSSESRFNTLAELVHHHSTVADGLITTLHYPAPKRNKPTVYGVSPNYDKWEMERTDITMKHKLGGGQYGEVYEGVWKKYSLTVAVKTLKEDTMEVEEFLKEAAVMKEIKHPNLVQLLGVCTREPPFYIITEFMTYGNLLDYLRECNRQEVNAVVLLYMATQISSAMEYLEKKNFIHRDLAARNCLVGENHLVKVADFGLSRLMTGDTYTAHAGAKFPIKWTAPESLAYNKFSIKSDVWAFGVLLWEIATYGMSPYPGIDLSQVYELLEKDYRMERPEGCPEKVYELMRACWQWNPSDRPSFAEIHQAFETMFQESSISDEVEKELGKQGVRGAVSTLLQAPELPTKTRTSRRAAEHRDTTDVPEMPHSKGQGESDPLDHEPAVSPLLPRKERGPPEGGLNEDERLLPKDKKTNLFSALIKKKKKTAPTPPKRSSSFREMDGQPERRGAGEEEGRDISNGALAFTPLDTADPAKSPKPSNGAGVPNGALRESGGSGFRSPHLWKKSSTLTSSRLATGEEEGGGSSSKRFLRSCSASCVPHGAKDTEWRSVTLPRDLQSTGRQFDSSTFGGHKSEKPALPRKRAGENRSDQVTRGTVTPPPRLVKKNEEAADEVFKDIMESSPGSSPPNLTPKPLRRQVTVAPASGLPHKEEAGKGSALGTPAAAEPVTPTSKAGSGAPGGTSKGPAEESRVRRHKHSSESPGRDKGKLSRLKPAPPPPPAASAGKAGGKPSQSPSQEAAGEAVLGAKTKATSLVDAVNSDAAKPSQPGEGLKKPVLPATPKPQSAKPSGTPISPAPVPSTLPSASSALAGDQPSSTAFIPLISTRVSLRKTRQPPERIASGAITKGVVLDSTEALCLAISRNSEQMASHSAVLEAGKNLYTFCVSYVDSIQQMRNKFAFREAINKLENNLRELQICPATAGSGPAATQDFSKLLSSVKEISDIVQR
various enzymes (Homo sapiens, UniProt P54756), sequence (P54756 25-1037): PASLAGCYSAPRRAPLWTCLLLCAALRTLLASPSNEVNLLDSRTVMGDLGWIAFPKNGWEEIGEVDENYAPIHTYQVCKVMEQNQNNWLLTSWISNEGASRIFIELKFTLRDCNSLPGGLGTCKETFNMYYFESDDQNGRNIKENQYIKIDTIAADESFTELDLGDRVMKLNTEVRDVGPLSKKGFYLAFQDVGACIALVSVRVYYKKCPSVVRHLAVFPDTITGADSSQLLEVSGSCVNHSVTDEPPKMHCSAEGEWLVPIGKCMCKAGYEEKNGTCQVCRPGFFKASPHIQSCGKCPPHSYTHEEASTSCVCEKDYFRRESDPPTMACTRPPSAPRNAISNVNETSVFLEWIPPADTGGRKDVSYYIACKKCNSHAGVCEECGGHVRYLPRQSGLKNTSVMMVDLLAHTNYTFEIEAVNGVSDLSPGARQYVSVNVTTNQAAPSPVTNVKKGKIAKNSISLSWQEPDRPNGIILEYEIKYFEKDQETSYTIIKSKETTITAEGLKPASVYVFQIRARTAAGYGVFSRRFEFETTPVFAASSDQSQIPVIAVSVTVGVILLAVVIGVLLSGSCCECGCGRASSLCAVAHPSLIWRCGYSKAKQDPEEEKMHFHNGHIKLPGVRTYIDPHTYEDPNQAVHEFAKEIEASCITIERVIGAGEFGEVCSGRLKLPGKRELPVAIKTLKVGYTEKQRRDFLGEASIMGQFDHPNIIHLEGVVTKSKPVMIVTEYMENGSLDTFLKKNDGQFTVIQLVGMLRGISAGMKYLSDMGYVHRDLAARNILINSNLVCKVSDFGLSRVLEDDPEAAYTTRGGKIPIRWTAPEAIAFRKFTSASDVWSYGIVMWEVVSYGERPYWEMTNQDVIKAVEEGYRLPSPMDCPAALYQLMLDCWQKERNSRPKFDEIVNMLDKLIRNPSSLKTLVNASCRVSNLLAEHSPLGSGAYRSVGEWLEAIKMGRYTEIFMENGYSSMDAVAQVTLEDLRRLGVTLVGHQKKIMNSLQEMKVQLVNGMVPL
various enzymes (Homo sapiens, UniProt P31749), sequence (P31749 whole entry): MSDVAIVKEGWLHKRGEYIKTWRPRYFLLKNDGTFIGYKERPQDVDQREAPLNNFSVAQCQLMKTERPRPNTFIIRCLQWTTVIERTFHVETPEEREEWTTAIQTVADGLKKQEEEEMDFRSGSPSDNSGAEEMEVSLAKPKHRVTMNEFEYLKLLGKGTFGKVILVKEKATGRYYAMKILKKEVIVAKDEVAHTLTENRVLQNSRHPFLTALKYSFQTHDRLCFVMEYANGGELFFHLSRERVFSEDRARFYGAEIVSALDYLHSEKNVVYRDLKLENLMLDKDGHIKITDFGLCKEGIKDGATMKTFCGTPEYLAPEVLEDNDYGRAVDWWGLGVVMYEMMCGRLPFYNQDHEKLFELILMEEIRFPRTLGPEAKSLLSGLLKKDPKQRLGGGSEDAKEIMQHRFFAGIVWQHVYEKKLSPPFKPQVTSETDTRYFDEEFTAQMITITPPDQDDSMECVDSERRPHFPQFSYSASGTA
various enzymes (Homo sapiens, UniProt Q16566), sequence (Q16566 whole entry): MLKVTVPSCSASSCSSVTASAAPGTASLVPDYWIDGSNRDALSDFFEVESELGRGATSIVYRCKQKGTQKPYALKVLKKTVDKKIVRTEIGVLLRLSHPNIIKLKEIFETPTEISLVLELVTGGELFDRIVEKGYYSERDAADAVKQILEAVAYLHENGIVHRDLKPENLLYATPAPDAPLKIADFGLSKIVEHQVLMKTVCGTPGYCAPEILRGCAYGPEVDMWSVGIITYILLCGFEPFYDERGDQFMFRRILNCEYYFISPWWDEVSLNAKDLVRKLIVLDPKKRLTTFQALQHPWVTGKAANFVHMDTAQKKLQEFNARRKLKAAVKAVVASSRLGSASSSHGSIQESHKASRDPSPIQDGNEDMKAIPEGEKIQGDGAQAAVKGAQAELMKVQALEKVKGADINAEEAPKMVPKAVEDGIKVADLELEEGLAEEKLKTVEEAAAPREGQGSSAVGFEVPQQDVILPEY
various enzymes (Homo sapiens, UniProt Q13523), sequence (Q13523 whole entry): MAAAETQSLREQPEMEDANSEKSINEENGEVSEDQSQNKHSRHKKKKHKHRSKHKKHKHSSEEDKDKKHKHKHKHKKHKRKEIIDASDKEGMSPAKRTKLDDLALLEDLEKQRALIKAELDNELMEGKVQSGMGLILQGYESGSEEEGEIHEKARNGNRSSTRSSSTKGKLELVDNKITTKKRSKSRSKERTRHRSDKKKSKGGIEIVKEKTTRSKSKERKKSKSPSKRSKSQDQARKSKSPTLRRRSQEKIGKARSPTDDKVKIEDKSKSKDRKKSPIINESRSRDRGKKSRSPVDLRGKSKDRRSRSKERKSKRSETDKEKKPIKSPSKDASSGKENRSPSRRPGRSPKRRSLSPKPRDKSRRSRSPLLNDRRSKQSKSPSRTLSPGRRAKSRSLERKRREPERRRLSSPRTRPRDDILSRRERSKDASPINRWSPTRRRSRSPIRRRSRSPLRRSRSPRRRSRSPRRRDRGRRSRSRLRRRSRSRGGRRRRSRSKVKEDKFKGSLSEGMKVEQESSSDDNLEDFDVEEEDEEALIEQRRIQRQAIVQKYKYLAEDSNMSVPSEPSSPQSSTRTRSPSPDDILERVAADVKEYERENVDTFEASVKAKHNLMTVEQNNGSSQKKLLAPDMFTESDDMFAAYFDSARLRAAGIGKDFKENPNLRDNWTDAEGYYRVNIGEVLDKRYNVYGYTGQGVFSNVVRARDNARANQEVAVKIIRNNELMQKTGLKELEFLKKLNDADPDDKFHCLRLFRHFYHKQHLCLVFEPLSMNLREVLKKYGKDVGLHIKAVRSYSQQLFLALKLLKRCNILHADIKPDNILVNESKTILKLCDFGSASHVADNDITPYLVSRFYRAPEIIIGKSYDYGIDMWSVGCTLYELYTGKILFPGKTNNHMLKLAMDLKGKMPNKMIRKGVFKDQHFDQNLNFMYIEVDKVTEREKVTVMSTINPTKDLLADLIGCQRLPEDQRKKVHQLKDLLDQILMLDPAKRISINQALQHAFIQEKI

Row | SMILES | Ambit profiling: PLK2 (various enzymes [1]) | Ambit profiling: PIK3CG (various enzymes [2]) | Ambit profiling: ERK3 (various enzymes [3]) | Ambit profiling: SGK2 (various enzymes [4]) | Ambit profiling: TNNI3K (various enzymes [5]) | Ambit profiling: LCK (various enzymes [6]) | Ambit profiling: ZAK (various enzymes [7]) | Ambit profiling: YANK1 (various enzymes [8]) | Ambit profiling: TXK (various enzymes [9]) | Ambit profiling: NIM1 (various enzymes [10]) | Ambit profiling: PRP4 (various enzymes [11]) | Ambit profiling: PRKCQ (various enzymes [12]) | Ambit profiling: MAP3K2 (various enzymes [13]) | Ambit profiling: NEK9 (various enzymes [14]) | Ambit profiling: ASK2 (various enzymes [16]) | Ambit profiling: DCAMKL3 (various enzymes [17]) | Ambit profiling: NEK1 (various enzymes [18]) | Ambit profiling: TAOK2 (various enzymes [20]) | Ambit profiling: IRAK4 (various enzymes [21]) | Ambit profiling: RIOK2 (various enzymes [22]) | other results
1 | COc1c2c(nn1C)CN(C(C)C)C(=O)CCCn1cc(c(C(F)(F)F)n1)-c1c[nH]c3ncc-2cc13 [Compound 50, (Z)-5-isopropyl-35-methoxy-31-methyl-13-(trifluoromethyl)-11H,21H,31H-5-aza-2(3,5)-pyrrolo[2,3-b]pyridina-1(4,1),3(4,3)-dipyrazolacyclononaphan-6-one] | 95 | 54 | 69 | 59 | 72 | 1.9 | 58 | 24 | 3.2 | 100 | 87 | 13 | 0.5 | 82 | 98 | 56 | 71 | 69 | 20 | 64 | Ambit profiling: PIK3CA(Q546K) (various enzymes [15]): 86; Ambit profiling: EGFR(L858R, T790M) (various enzymes [19]): 19; Ambit profiling: RPS6KA4(Kin.Dom.1-N-terminal) (various enzymes [23]): 62; Ambit profiling: RPS6KA4(Kin.Dom.2-C-terminal) (various enzymes [23]): 100; Ambit profiling: MET(M1250T) (various enzymes [24]): 4.2; Ambit profiling: PIP5K1A (various enzymes [25]): 19; Ambit profiling: MLK2 (various enzymes [26]): 60; Ambit profiling: PIK3CA (various enzymes [27]): 83; Ambit profiling: ABL1-nonphosphorylated (various enzymes [28]): 11; Ambit profiling: ABL1-phosphorylated (various enzymes [28]): 3.8; Ambit profiling: FLT3(N841) (various enzymes [29]): 0; Ambit profiling: TLK2 (various enzymes [30]): 91; Ambit profiling: AKT1 (various enzymes [31]): 100; Ambit profiling: PDGFRB (various enzymes [32]): 0; Ambit profiling: MEK3 (various enzymes [33]): 7.1; Ambit profiling: EPHA5 (various enzymes [34]): 67; Ambit profiling: CAMK4 (various enzymes [35]): 100; Ambit profiling: PDGFRA (various enzymes [36]): 5.6; Ambit profiling: CDKL1 (various enzymes [37]): 51
2 | CC(C)N1Cc2nn(C)cc2-c2cnc3[nH]cc(c3c2)-c2cn(nc2C(F)(F)F)CCCC1=O [Compound 45, (Z)-5-isopropyl-31-methyl-13-(trifluoromethyl)-11H,21H,31H-5-aza-2(3,5)-pyrrolo[2,3-b]pyridina-1(4,1),3(4,3)-dipyrazolacyclononaphan-6-one] | 90 | 94 | 100 | 23 | 72 | 0.65 | 45 | 100 | 15 | 100 | 36 | 27 | 0.45 | 100 | 54 | 19 | 100 | 28 | 39 | 74 | Ambit profiling: PIK3CA(Q546K) (various enzymes [15]; compound 1 uM): 100; Ambit profiling: EGFR(L858R, T790M) (various enzymes [19]; compound 1 uM): 27; Ambit profiling: RPS6KA4(Kin.Dom.1-N-terminal) (various enzymes [23]): 98; Ambit profiling: RPS6KA4(Kin.Dom.2-C-terminal) (various enzymes [23]): 100; Ambit profiling: MET(M1250T) (various enzymes [24]; compound 1 uM): 4.3; Ambit profiling: PIP5K1A (various enzymes [25]): 27; Ambit profiling: MLK2 (various enzymes [26]): 36; Ambit profiling: PIK3CA (various enzymes [27]): 100; Ambit profiling: ABL1-nonphosphorylated (various enzymes [28]): 20; Ambit profiling: ABL1-phosphorylated (various enzymes [28]): 9; Ambit profiling: FLT3(N841I) (various enzymes [29]): 0; Ambit profiling: TLK2 (various enzymes [30]): 86; Ambit profiling: AKT1 (various enzymes [31]): 100; Ambit profiling: PDGFRB (various enzymes [32]): 0.1; Ambit profiling: MEK3 (various enzymes [33]): 0; Ambit profiling: EPHA5 (various enzymes [34]): 92; Ambit profiling: CAMK4 (various enzymes [35]): 100; Ambit profiling: PDGFRA (various enzymes [36]): 11; Ambit profiling: CDKL1 (various enzymes [37]): 39
